According to US10662204B2 (PFIZER INC., priority 2018, dated 2020):

Tests used:
KRAS G12C = KRAS G12C (Homo sapiens, UniProt P01116, G12C); assay: Cell Activity Assay: accumulation of GDP-bound KRAS G12C in MIAPaCa-2 cells (Raf-1 RBD capture, MSD readout); assay type: cell-based; set-up: endogenous in cells; host or cells: MIAPaCa-2; settings: 6 hours, assay limit is 30.00
Outline: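 MIAPaCa-2 cells exposed 6 h at 37 °C to 3-fold compound dilutions (0.3% DMSO final), then lysed. Active GTP-KRAS captured on Raf-1 RBD-coated plates, detected with anti-pan-Ras and SULFO-TAG secondary by MSD electrochemiluminescence. Signal normalized to DMSO and maximum inhibition; IC50 from 4-parameter fit.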

[1] = target: T1, GDP-loaded KRAS (1-169) G12C, C51S, C80L, C118S (Homo sapiens, UniProt P01116, C118S/C51S/C80L/G12C); assay: Mass Spectrometry Reactivity Assay (MSRA): covalent adduct of compound and KRAS G12C, Percent Modification; assay type: binding; settings: for MSRA (% modification) 10 μM 0.50 hr / MSRA (% modification) 10 μM 0.25 hr: 10 μM compound
T1 construct: GDP-loaded KRAS (1-169) G12C, C51S, C80L, C118S
Outline: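 GDP-loaded KRAS(1-169) G12C/C51S/C80L/C118S at 5 μM in 25 mM Hepes pH 7.5, 200 mM NaCl, 5% glycerol incubated at RT with compound (typically 5 or 10 μM final, 1% DMSO). Quenched in formic acid at 1-60 min; intact-protein LC-TOF MS gives % modification = modified/(modified+unmodified).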

SMILES	IC50 (KRAS G12C)	MSRA (% modification) 10 μM 0.50 hr [1]	MSRA (% modification) 10 μM 0.25 hr [1]	MSRA (% modification) 5.0 μM 0.25 hr ([1]; 5.0 μM compound)	MSRA (% modification) 5.0 μM 0.017 hr ([1]; 5.0 μM compound, 0.017 hr)
C=CC(=O)N1CCN(c2nc(N3CC(CN(C)C)C3)nc3c(Oc4c(C)ccc5[nH]ncc45)cccc23)CC1 [Example 10E, 1-[4-(2-{3-[(dimethylamino)methyl]azetidin-1-yl}-8-[(5-methyl-1H-indazol-4-yl)oxy]quinazolin-4-yl)piperazin-1-yl]prop-2-en-1-one]	2.32 µM	21%	–	–	–
C=CC(=O)N1CCN(c2nc(OC[C@H]3CCC(=O)N3)nc3c(Oc4c(C)ccc5[nH]ncc45)cccc23)CC1 [Example 10F, (5R)-5-[({4-(4-acryloylpiperazin-1-yl)-8-[(5-methyl-1H-indazol-4-yl)oxy]quinazolin-2-yl}oxy)methyl]pyrrolidin-2-one]	6.07 µM	65%	53%	–	–
C=CC(=O)N1CCN(c2nc(OC[C@H]3COCCN3C)nc3c(Oc4c(Cl)c(F)cc5[nH]ncc45)nccc23)CC1 [Example 10H, 1-[4-(8-[(5-chloro-6-fluoro-1H-indazol-4-yl)oxy]-2-{[(3R)-4-methylmorpholin-3-yl]methoxy}pyrido[3,4-d]pyrimidin-4-yl)piperazin-1-yl]prop-2-en-1-one]	0.965 µM	68%	–	47%	–
C=CC(=O)N1CCN(c2nc(O[C@@H]3CCC[C@H]3N(C)C)nc3c(Oc4c(C)ccc5[nH]ncc45)nccc23)CC1 [Example 11B, 1-[4-(2-{[(1R,2R)-2-(dimethylamino)cyclopentyl]oxy}-8-[(5-methyl-1H-indazol-4-yl)oxy]pyrido[3,4-d]pyrimidin-4-yl)piperazin-1-yl]prop-2-en-1-one]	4.89 µM	–	21%	–	–
C=CC(=O)N1CCN(c2nc(N3CC(N(C)C)C3)nc3c(Oc4c(Cl)c(C)cc5[nH]ncc45)cc(Cl)cc23)CC1 [Example 11E, 1-(4-{6-chloro-8-[(5-chloro-6-methyl-1H-indazol-4-yl)oxy]-2-[3-(dimethylamino)azetidin-1-yl]quinazolin-4-yl}piperazin-1-yl)prop-2-en-1-one]	3.95 µM	68%	–	–	–
C=CC(=O)N1CCN(c2nc(OC[C@@H]3CCC(=O)N3)nc3c(Oc4c(C)ccc5[nH]ncc45)cccc23)CC1 [Example 11F, (5S)-5-[({4-(4-acryloylpiperazin-1-yl)-8-[(5-methyl-1H-indazol-4-yl)oxy]quinazolin-2-yl}oxy)methyl]pyrrolidin-2-one]	8.14 µM	55%	34%	–	–
C=CC(=O)N1CCN(c2ncnc3c(Oc4c(C)c(C)cc5[nH]ncc45)nccc23)CC1 [Example 12A, 1-(4-{8-[(5,6-dimethyl-1H-indazol-4-yl)oxy]pyrido[3,4-d]pyrimidin-4-yl}piperazin-1-yl)prop-2-en-1-one]	2.95 µM	38%	–	–	–
C=CC(=O)N1CCN(c2nc(OCCN3CCCC3)nc3c(Oc4c(C)ccc5[nH]ncc45)nccc23)CC1 [Example 12B, 1-(4-{8-[(5-methyl-1H-indazol-4-yl)oxy]-2-[2-(pyrrolidin-1-yl)ethoxy]pyrido[3,4-d]pyrimidin-4-yl}piperazin-1-yl)prop-2-en-1-one]	5.45 µM	–	21%	–	–
C=CC(=O)N1CCN(c2ncnc3c(Oc4c(C)ccc5[nH]ncc45)cc(Cl)cc23)CC1 [Example 12C, 1-(4-{6-chloro-8-[(5-methyl-1H-indazol-4-yl)oxy]quinazolin-4-yl}piperazin-1-yl)prop-2-en-1-one]	3.91 µM	34%	–	–	–
C=CC(=O)N1CCN(c2nc(NCC3CCC(=O)N3)nc3c(Oc4c(C)ccc5[nH]ncc45)cccc23)CC1 (stereo not drawn) [Example 12F, 5-[({4-(4-acryloylpiperazin-1-yl)-8-[(5-methyl-1H-indazol-4-yl)oxy]quinazolin-2-yl}amino)methyl]pyrrolidin-2-one]	29.1 µM	20%	–	–	–

Now those with a lower IC50 (KRAS G12C), led by results:

IC50 (KRAS G12C)	MSRA (% modification) 10 μM 0.50 hr [1]	MSRA (% modification) 10 μM 0.25 hr [1]	MSRA (% modification) 5.0 μM 0.25 hr ([1]; 5.0 μM compound)	MSRA (% modification) 5.0 μM 0.017 hr ([1]; 5.0 μM compound, 0.017 hr)	SMILES
0.835 µM	79%	–	–	–	C=CC(=O)N1CCN(c2nc(OCCCN(C)C)nc3c(Oc4c(Cl)c(C)cc5[nH]ncc45)cc(Cl)cc23)CC1 [Example 12E, 1-(4-{6-chloro-8-[(5-chloro-6-methyl-1H-indazol-4-yl)oxy]-2-[3-(dimethylamino)propoxy]quinazolin-4-yl}piperazin-1-yl)prop-2-en-1-one]
0.691 µM	–	67%	49%	–	C=CC(=O)N1CCN(c2nc(OC[C@@H]3C[C@H](OC)CN3C)nc3c(Oc4c(Cl)c(F)cc5[nH]ncc45)nccc23)CC1 [Example 12H, 1-[4-(8-[(5-chloro-6-fluoro-1H-indazol-4-yl)oxy]-2-{[(2S,4S)-4-methoxy-1-methylpyrrolidin-2-yl]methoxy}pyrido[3,4-d]pyrimidin-4-yl)piperazin-1-yl]prop-2-en-1-one]
0.321 µM	–	–	32%	–	C=CC(=O)N1CCN(c2nc(O[C@H]3CN(C)C[C@@H]3OC)nc3c(Oc4c(Cl)c(F)cc5[nH]ncc45)nccc23)CC1 [Example 11I, 1-[4-(8-[(5-chloro-6-fluoro-1H-indazol-4-yl)oxy]-2-{[(3S,4S)-4-methoxy-1-methyl-pyrrolidin-3-yl]oxy}pyrido [3,4-d]pyrimidin-4-yl)piperazin-1-yl]prop-2-en-1-one]
0.237 µM	–	80%	–	–	C=CC(=O)N1CCN(c2nc(OC[C@@H]3C[C@H](F)CN3C)nc3c(Oc4c(Cl)c(F)cc5[nH]ncc45)nccc23)CC1 [Example 11H, 1-[4-(8-[(5-chloro-6-fluoro-1H-indazol-4-yl)oxy]-2-{[(2S,4S)-4-fluoro-1-methylpyrrolidin-2-yl]methoxy}pyrido[3,4-d]pyrimidin-4-yl)piperazin-1-yl]prop-2-en-1-one]
0.071 µM	–	53%	–	–	C=CC(=O)N1CCN(c2nc(OC[C@@H]3CCCN3C)nc3c(Oc4c(C)c(Cl)cc5[nH]ncc45)nc(Cl)cc23)CC1 [Example 10G, 1-[4-(6-chloro-8-[(6-chloro-5-methyl-1H-indazol-4-yl)oxy]-2-{[(2S)-1-methylpyrrolidin-2-yl]methoxy}pyrido[3,4-d]pyrimidin-4-yl)piperazin-1-yl]prop-2-en-1-one]
0.071 µM	–	75%	–	–	C=CC(=O)N1CCN(c2nc(OCC3CCOC3)nc3c(Oc4c(Cl)c(F)cc5[nH]ncc45)nc(Cl)cc23)CC1 (stereo not drawn) [Example 12G, 1-(4-{6-chloro-8-[(5-chloro-6-fluoro-1H-indazol-4-yl)oxy]-2-(tetrahydrofuran-3-ylmethoxy)pyrido[3,4-d]pyrimidin-4-yl}piperazin-1-yl)prop-2-en-1-one]
0.022 µM	–	–	82%	70%	C=CC(=O)N1CCN(c2nc(O[C@@H]3CN(C)C[C@H]3OC)nc3c(Oc4c(Cl)c(F)cc5[nH]ncc45)nccc23)CC1 [Example 10I, 1-[4-(8-[(5-chloro-6-fluoro-1H-indazol-4-yl)oxy]-2-{[(3R,4R)-4-methoxy-1-methylpyrrolidin-3-yl]oxy}pyrido[3,4-d]pyrimidin-4-yl)piperazin-1-yl]prop-2-en-1-one]
